Entries after “also recorded” stand apart in the source; their conditions may differ.
Test system: mouse Tas2rs
Test: Calcium imaging screening of 34 mouse bitter taste receptors
Assay type: cell-based
Conditions: screening of 34 mouse receptors; listed as CDCA
Method: This set of bile acids was chosen because of their commercial availability in high purities, their diversity within the class of bile acids and their previous detection and quantitation in human blood. Stock solutions were prepared in DMSO. […] Maximal applied concentrations are due to solubility problems or receptor-independent artefacts during measurement at high bile acid concentrations (Table 1, Table 2)[12],[58]. […]
Cells were loaded using the calcium-sensitive fluorescent dye Fluo-4-AM (Abcam, Cambridge, Great Britain) in the presence of 2.5 mM probenecid (Sigma-Aldrich, Steinheim, Germany) the day after transfection[13],[41]. […] For automated agonist application and measurement of fluorescence changes, a FLIPR^TETRA device (Molecular Devices, San José, United States) was used. […]
Measured data were negative control corrected by subtracting the signal of the mock-transfected cells and exported to Microsoft Excel using the FLIPR software ScreenWorks 4.2. In Microsoft Excel software, standardization of maximum fluorescence intensities to the basal fluorescence and normalization to the buffer-only control was done to calculate the relative fluorescence changes (ΔF/F). […]

In the case of `C[C@H](CCC(=O)O)[C@H]1CC[C@H]2[C@@H]3[C@H](O)C[C@@H]4C[C@H](O)CC[C@]4(C)[C@H]3CC[C@]12C` [Chenodeoxycholic Acid, chenodeoxycholic acid], the “Response of mouse Tas2rs” value is reported as “did not activate any; also recorded: did not obtain any response”.

Source: paper PMC10247784, “Physiological activation of human and mouse bitter taste receptors by bile acids” (Communications Biology, 2023)
